The results in this text go back to patent publication US12590332B2, “Composition for diagnosing or treating kidney disease” (INJE UNIVERSITY INDUSTRY-ACADEMIC COOPERATION FOUNDATION, priority 2020, dated 2026).

The test system of one data set is mouse podocyte cell line. The experiment in a line: VSIG4 expression in podocytes (mRNA by PCR, protein by Western blot). It counts as cell-based. On the procedure:
The mouse podocyte cell line was mixed with 10% heat inactivated fetal bovine serum, 100 IU/mL of penicillin, and […] of streptomycin in RPMI culture medium and cultured in a humid atmosphere in the presence of 5% CO2 at 37° C. To evaluate VSIG4 expression, low glucose (LG, 5.5 mM) and high glucose (HG, 55 mM), 100 nM angiotensin II, 1.0 μg/mL and 3.0 μg/mL of Adriamycin were treated. The medium in a plate in which cells are being cultured was removed and RNA was extracted using Trizol (Life Technologies, Gaithersburg, MD, USA). Reverse transcription (RT) was performed using a cDNA synthesis kit (Applied biosystems, Roche Inc., Foster City, CA, USA), mRNA expression was evaluated using polymerase chain reaction (PCR), and the expression level was corrected with β-actin or GAPDH. Proteins obtained by treating cell lysates with RIPA buffer were quantified, and 20 μg of protein was separated using 8-15% SDS-PAGE. After separation of the protein by electrophoresis using 10% SDS-PAGE, the protein was transferred to a PVDF membrane (Millipore corporation bedford, USA) using a PAGE transfer buffer (Amersham Life Science, Arlington Heights, IL) at 270 mA for 4 hours, reacted overnight at 4° C. using a blocking solution (5% skim milk), and washed with Tris buffered saline with Tween-20 (TBS-T buffer; 10 mM Tris-Cl, pH 7.8, […] Nacl, 0.05% Tween-20). […]
For orientation: In western blotting, separated proteins are transferred to a membrane and probed.

In the next data set the test system is Balb/c male mice. Kind of data set: Adriamycin-induced renal injury model. As to conditions: 11 mg/kg once into tail vein, 4 weeks, FIG. 8.
The test system of the next data set is HK2 cells. Kind of data set: VSIG4 expression in HK2 renal tubular cells (mRNA by PCR, protein by Western blot). It counts as cell-based, human. As to conditions: renal tubular cells treated with TGF-β (10 ng/mL recombinant); FIG. 3. On the procedure:
HK2 cells (A TCC, Manassan, VA), immortalized human renal proximal tubule cells, were cultured by adding, in a DMEM medium (Mediatech Inc., Corning Subsidiary, Manassas, VA), 10% heat inactivated fetal bovine serum (Tissue Culture Biologicals, Tulare, CA, USA), 100 IU/mL of penicillin, and […] of streptomycin in a humid atmosphere in the presence of 5% CO2 at 37° C.
[…] The purchased scrambled siRNA (control siRNA) and VSIG4 siRNA (z391g, Santa Cruz Biotechnology, Santa Cruz, CA) were each transfected by 200 MOI to suppress VSIG4 expression in HK2 cells.
To inhibit TGF-β expression, TGF-β-siRNA (Santa Cruz Biotechnology, Santa Cruz, CA, USA) was used, and 10 ng/mL of recombinant TGF-β (R&D systems, Minneapolis, MN, USA) was used for TGF-β stimulation experiment.
The medium in a plate in which cells are being cultured was removed and RNA was extracted using Trizol (Life Technologies, Gaithersburg, MD, USA). Reverse transcription (RT) was performed using a cDNA synthesis kit (Applied biosystems, Roche Inc., Foster City, CA, USA), mRNA expression was evaluated using polymerase chain reaction (PCR), and the expression level was corrected with β-actin or GAPDH.
Proteins obtained by treating cell lysates with RIPA buffer were quantified, and 20 μg of protein was separated using 8-15% SDS-PAGE. […]

Consider `COc1cccc2c1C(=O)c1c(O)c3c(c(O)c1C2=O)C[C@@](O)(C(=O)CO)C[C@@H]3O[C@H]1C[C@H](N)[C@H](O)[C@H](C)O1` [Adriamycin], for which the “expression of VSIG4 mRNA and protein” value in the data set with mouse podocyte cell line (podocytes, 1.0 μg/mL and 3.0 μg/mL, 12 hours and 24 hours, FIG. 9) is given as “increased over time”. In the data set on Balb/c male mice (24-hour urine, ELISA), the “VSIG4 protein expression (urine)” value was “significantly increased”. For the same compound, the albuminuria result in the data set on Balb/c male mice (24-hour urine) is reported as “significantly increased”. Besides, the “VSIG4 mRNA expression in kidney tissues” value in the data set on Balb/c male mice is listed as “significantly increased”.

With TGF-β, the VSIG4 expression result in the data set with HK2 cells is recorded as “increased”.

Turning to “angiotensin II (DRVYIHPF; Angiotensin-2; UniProt P01019 25-32, looked up) [main substance of kidney damage used to stimulate podocytes]”, the “expression of VSIG4 mRNA and protein” value with mouse podocyte cell line (podocytes stimulated with high glucose (55 mM) and angiotensin II (100 nM), compared to low glucose, FIG. 4) was “increased”.
